# Laboratory results as given in US10414763B2 (CANCER RESEARCH TECHNOLOGY LIMITED, priority 2014, dated 2019).
# Biological target: T1, full-length human PKCι (Homo sapiens, UniProt P41743)
# T1 construct: Recombinant, full-length human PKCι expressed in Sf21 insect cells is also commercially available; purchased EMD Millipore; host or cells: Sf21 insect cells (baculovirus)
# T1 sequence (P41743 1-596): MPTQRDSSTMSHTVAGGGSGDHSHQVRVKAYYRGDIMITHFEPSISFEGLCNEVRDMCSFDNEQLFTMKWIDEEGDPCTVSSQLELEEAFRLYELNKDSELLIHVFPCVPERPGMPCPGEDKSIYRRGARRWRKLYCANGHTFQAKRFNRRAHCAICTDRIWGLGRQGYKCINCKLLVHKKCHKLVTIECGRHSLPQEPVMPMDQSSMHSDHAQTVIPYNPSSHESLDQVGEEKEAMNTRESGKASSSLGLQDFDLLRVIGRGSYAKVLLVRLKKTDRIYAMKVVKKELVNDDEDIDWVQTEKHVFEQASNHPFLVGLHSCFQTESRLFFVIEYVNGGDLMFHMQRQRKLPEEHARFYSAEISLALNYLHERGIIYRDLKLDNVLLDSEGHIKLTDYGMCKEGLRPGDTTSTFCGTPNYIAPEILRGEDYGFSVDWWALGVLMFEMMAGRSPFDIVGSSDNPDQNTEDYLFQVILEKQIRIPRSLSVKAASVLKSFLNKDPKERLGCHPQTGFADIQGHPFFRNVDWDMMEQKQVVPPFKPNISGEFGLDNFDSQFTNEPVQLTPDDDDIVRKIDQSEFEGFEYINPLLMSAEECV
# Test: PKCι IC50 IMAP fluorescence polarisation assay, full-length enzyme, 150 μM ATP
# Assay type: biochemical
# Settings: read-out: IC50 in IMAP assay against full length PKCi at 150 μM ATP
# Method in brief: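 IMAP fluorescence polarisation kinase assay: 15 pM baculovirus-expressed human PKCiota with 100 nM FAM-pseudosubstrate peptide and 150 μM ATP, 1 h at 25 °C. IMAP detection reagent then 2 h at 25 °C before FP measurement. Inhibition referenced to no-compound and no-enzyme controls for IC50 fitting.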
row,SMILES,IC50
1,"C[C@@H]1CNCC[C@H]1Nc1nc(-c2ccnc3[nH]c4ccccc4c23)nc2cncc(C(F)(F)F)c12 (racemic) [Example 352, (rac-(3R,4R)-3-Methyl-piperidin-4-yl)-[2-(9H-pyrido[2,3-b]indol-4-yl)-5-trifluoromethyl-pyrido[3,4-d]pyrimidin-4-yl]-amine]",< 0.1 µM
2,"CN(c1nc(-c2ccnc3[nH]c(-c4cc(F)ccc4Cl)cc23)nc2cncc(C3CC3)c12)[C@@H]1CCNC[C@@]1(C)O (racemic) [Example 359, rac-(3R,4R)-4-({2-[2-(2-Chloro-5-fluoro-phenyl)-1H-pyrrolo[2,3-b]pyridin-4-yl]-5-cyclopropyl-pyrido[3,4-d]pyrimidin-4-yl}-methyl-amino)-3-methyl-piperidin-3-ol]",< 0.1 µM
3,"C[C@@H]1CNCC[C@H]1Nc1nc(-c2ccnc(Nc3nc(F)ccc3F)c2)nc2cncc(C3CCC3)c12 (single isomer, unassigned) [Example 279, {5-Cyclobutyl-2-[2-(3,6-difluoro-pyridin-2-ylamino)-pyridin-4-yl]-pyrido[3,4-d]pyrimidin-4-yl}-((3R,4R)-3-methyl-piperidin-4-yl)-amine or enantiomer]",< 0.1 µM
4,"C[C@@H]1CNCC[C@@H]1Nc1nc(-c2ccnc(Nc3nc(F)ccc3F)c2)nc2cncc(C3CCC3)c12 (single isomer, unassigned) [Example 297, {5-Cyclobutyl-2-[2-(3,6-difluoro-pyridin-2-ylamino)-pyridin-4-yl]-pyrido[3,4-d]pyrimidin-4-yl}-((3R,4S)-3-methyl-piperidin-4-yl)-amine or enantiomer]",< 0.1 µM
5,"C[C@H]1CNCC[C@@H]1Nc1nc(-c2ccnc(Nc3nc(F)ccc3F)c2)nc2cncc(C3CC3)c12 (single isomer, unassigned) [Example 334, 5-Cyclopropyl-2-[2-[(3,6-difluoro-2-pyridyl)amino]-4-pyridyl]-N-[(3S,4S)-3-methyl-4-piperidyl]pyrido[3,4-d]pyrimidin-4-amine or enantiomer]",< 0.1 µM
6,"C[C@@H]1CNCC[C@H]1Nc1nc(-c2ccnc(Nc3nc(F)ccc3F)c2)nc2cncc(C3CC3)c12 (single isomer, unassigned) [Example 335, 5-Cyclopropyl-2-[2-[(3,6-difluoro-2-pyridyl)amino]-4-pyridyl]-N-[(3R,4R)-3-methyl-4-piperidyl]pyrido[3,4-d]pyrimidin-4-amine or enantiomer]",< 0.1 µM
7,"C[C@@H]1CNCC[C@H]1Nc1nc(-c2ccnc(Nc3ncccc3F)c2)nc2cncc(C3CCC3)c12 (single isomer, unassigned) [Example 341, 5-Cyclobutyl-2-[2-[(3-fluoro-2-pyridyl)amino]-4-pyridyl]-N-[(3R,4R)-3-methyl-4-piperidyl]pyrido[3,4-d]pyrimidin-4-amine or enantiomer]",< 0.1 µM
8,"C[C@H]1CNCC[C@@H]1Nc1nc(-c2ccnc(Nc3ncccc3F)c2)nc2cncc(C3CCC3)c12 (single isomer, unassigned) [Example 342, 5-Cyclobutyl-2-[2-[(3-fluoro-2-pyridyl)amino]-4-pyridyl]-N-[(3S,4S)-3-methyl-4-piperidyl]pyrido[3,4-d]pyrimidin-4-amine or enantiomer]",< 0.1 µM
9,"CC1(C)CNCCC1Nc1nc(-c2ccnc3[nH]c(-c4cc(Cl)ccc4Cl)cc23)nc2cncc(C3CC3)c12 (stereo in doubt) [Example 353, {5-Cyclopropyl-2-[2-(2,5-dichloro-phenyl)-1H-pyrrolo[2,3-b]pyridin-4-yl]-pyrido[3,4-d]pyrimidin-4-yl}-((S)-3,3-dimethyl-piperidin-4-yl)-amine]",< 0.1 µM
10,"Cc1cn2c(n1)[nH]c1nccc(-c3nc(N4CCNCC4)c4c(C5CCC5)cncc4n3)c12 [Example 3, 4-(5-Cyclobutyl-4-piperazin-1-yl-pyrido[3,4-d]pyrimidin-2-yl)-2-methyl-8H-1,3a,7,8-tetraaza-cyclopent[a]indene]",0.1 to 1 µM
11,"OC[C@@H]1CNCCN1c1nc(-c2ccnc3[nH]c(C(F)(F)F)cc23)nc2cncc(C3CC3)c12 [Example 4, {(S)-1-[5-Cyclopropyl-2-(2-trifluoromethyl-1H-pyrrolo[2,3-b]pyridin-4-yl)-pyrido[3,4-d]pyrimidin-4-yl]-piperazin-2-yl}-methanol]",0.1 to 1 µM
12,"OC[C@H]1CNCCN1c1nc(-c2ccnc3[nH]c(C(F)(F)F)cc23)nc2cncc(C3CCC3)c12 [Example 7, {(R)-1-[5-Cyclobutyl-2-(2-trifluoromethyl-1H-pyrrolo[2,3-b]pyridin-4-yl)-pyrido[3,4-d]pyrimidin-4-yl]-piperazin-2-yl}-methanol]",0.1 to 1 µM
13,"c1ccc2c(c1)[nH]c1nccc(-c3nc(N4CC[C@@H]5CNC[C@@H]54)c4c(C5CCC5)cncc4n3)c12 [Example 9, 4-((R)-5-Cyclobutyl-4-(R)-hexahydro-pyrrolo[3,4-b]pyrrol-1-yl-pyrido[3,4-d]pyrimidin-2-yl)-9H-pyrido[2,3-b]indole]",< 0.1 µM
14,"c1ccc2c(c1)[nH]c1nccc(-c3nc(N4CC[C@H]5CNC[C@H]54)c4c(C5CCC5)cncc4n3)c12 [Example 10, 4-((S)-5-Cyclobutyl-4 (S)-hexahydro-pyrrolo[3,4-b]pyrrol-1-yl-pyrido[3,4-d]pyrimidin-2-yl)-9H-pyrido[2,3-b]indole]",< 0.1 µM

# Results, then the compound that gave them:
row,IC50,SMILES
1,0.1 to 1 µM,"C[C@H]1CNCC[C@H]1Nc1nc(-c2ccnc3[nH]c4ccccc4c23)nc2cncc(C(F)(F)F)c12 (racemic) [Example 351, rac-(3S,4R)-3-Methyl-piperidin-4-yl)-[2-(9H-pyrido[2,3-b]indol-4-yl)-5-trifluoromethyl-pyrido[3,4-d]pyrimidin-4-yl]-amine]"
2,< 0.1 µM,"C[C@@]1(O)CNCC[C@H]1Nc1nc(-c2ccnc3[nH]c(-c4cc(F)ccc4Cl)cc23)nc2cncc(C3CC3)c12 (racemic) [Example 354, rac-(3R,4R)-4-{2-[2-(2-Chloro-5-fluoro-phenyl)-1H-pyrrolo[2,3-b]pyridin-4-yl]-5-cyclopropyl-pyrido[3,4-d]pyrimidin-4-ylamino}-3-methyl-piperidin-3-ol]"
3,< 0.1 µM,"O[C@@]12CCN(c3nc(-c4ccnc5[nH]c(-c6cc(F)ccc6Cl)cc45)nc4cncc(C5CC5)c34)[C@@H]1CCNC2 (racemic) [Example 358, rac(1R,3aS)-1-{2-[2-(2-Chloro-5-fluoro-phenyl)-1H-pyrrolo[2,3-b]pyridin-4-yl]-5-cyclopropyl-pyrido[3,4-d]pyrimidin-4-yl}-octahydro-pyrrolo[3,2-c]pyridin-3a-ol]"
4,< 0.1 µM,"O[C@H]1CNCC[C@H]1Nc1nc(-c2ccnc(Nc3nc(F)ccc3F)c2)nc2cncc(C3CCC3)c12 (racemic) [Example 381, rac-(3S,4R)-4-{5-Cyclobutyl-2-[2-(3,6-difluoro-pyridin-2-ylamino)-pyridin-4-yl]-pyrido[3,4-d]pyrimidin-4-ylamino}-piperidin-3-ol]"
5,< 0.1 µM,"C[C@H]1C[C@@H](Nc2nc(-c3ccnc(Nc4nc(F)ccc4F)c3)nc3cncc(C4CCC4)c23)CCN1 (racemic) [Example 386, {5-Cyclobutyl-2-[2-(3,6-difluoro-pyridin-2-ylamino)-pyridin-4-yl]-pyrido[3,4-d]pyrimidin-4-yl}-(rac-(2S,4S)-2-methyl-piperidin-4-yl)-amine]"
6,< 0.1 µM,"C[C@@H]1C[C@@H](Nc2nc(-c3ccnc(Nc4nc(F)ccc4F)c3)nc3cncc(C4CCC4)c23)CCN1 (racemic) [Example 387, {5-Cyclobutyl-2-[2-(3,6-difluoro-pyridin-2-ylamino)-pyridin-4-yl]-pyrido[3,4-d]pyrimidin-4-yl}-(rac-(2R,4S)-2-methyl-piperidin-4-yl)-amine]"
7,< 0.1 µM,"C[C@H]1CNCC[C@@H]1Nc1nc(-c2ccnc(Nc3nc(F)ccc3F)c2)nc2cncc(C3CCC3)c12 (single isomer, unassigned) [Example 280, {5-Cyclobutyl-2-[2-(3,6-difluoro-pyridin-2-ylamino)-pyridin-4-yl]-pyrido[3,4-d]pyrimidin-4-yl}-((3S,4S)-3-methyl-piperidin-4-yl)-amine or enantiomer]"
8,< 0.1 µM,"C[C@H]1CNCC[C@H]1Nc1nc(-c2ccnc(Nc3nc(F)ccc3F)c2)nc2cncc(C3CCC3)c12 (single isomer, unassigned) [Example 298, {5-Cyclobutyl-2-[2-(3,6-difluoro-pyridin-2-ylamino)-pyridin-4-yl]-pyrido[3,4-d]pyrimidin-4-yl}-((3S,4R)-3-methyl-piperidin-4-yl)-amine or enantiomer]"
9,1 to 10 µM,"OC[C@@H]1CNCCN1c1nc(-c2ccnc3[nH]c(C(F)(F)F)cc23)nc2cncc(C3CCC3)c12 [Example 5, {(S)-1-[5-Cyclobutyl-2-(2-trifluoromethyl-1H-pyrrolo[2,3-b]pyridin-4-yl)-pyrido[3,4-d]pyrimidin-4-yl]-piperazin-2-yl}-methanol]"
10,0.1 to 1 µM,"OC[C@H]1CNCCN1c1nc(-c2ccnc3[nH]c(C(F)(F)F)cc23)nc2cncc(C3CC3)c12 [Example 6, {(R)-1-[5-Cyclopropyl-2-(2-trifluoromethyl-1H-pyrrolo[2,3-b]pyridin-4-yl)-pyrido[3,4-d]pyrimidin-4-yl]-piperazin-2-yl}-methanol]"
